The nature of data set [1]: Cytotoxicity against human L02 cells assessed as reduction in cell viability incubated for 24 hrs by MTT assay. The class given is toxicity, cell-based.
The test system of data set [2] is HeLa. As to the kind of experiment: Antiproliferative activity against human HeLa cells assessed as inhibition of cell growth incubated for 24 hrs by MTT assay. The class given is functional, cell-based.
The test system of a further data set is HepG2. Nature of the data set: Anticancer activity against human HepG2 cells assessed as inhibition of cell growth incubated for 24 hrs by MTT assay. The class given is functional, cell-based. The following applies: HepG2, 24 h. In general terms: Formazan colour is commonly taken as a measure of viable cells.
The nature of data set [3]: Anticancer activity against human A875 cells assessed as inhibition of cell growth incubated for 72 hrs by MTT assay. Particulars: A875, 72 h. The class given is functional, cell-based.
Data set [4] deals with A549. Nature of the data set: Antiproliferative activity against human A549 cells assessed as inhibition of cell growth incubated for 24 hrs by MTT assay. The class given is functional, cell-based. The following applies: A549, 24 h.
Another data set concerns L02. As to the kind of experiment: Antiproliferative activity against human L02 cells assessed as inhibition of cell proliferation incubated for 20 hrs by MTT assay. The class given is functional, cell-based. The following applies: L02, 20 h.
In data set [5] the test system is HeLa. Nature of the data set: Antiproliferative activity against human HeLa cells assessed as inhibition of cell proliferation incubated for 24 hrs by MTT assay. The class given is functional, cell-based.
Data set [6] relates to HeLa. As to the kind of experiment: Antiproliferative activity against human HeLa cells assessed as reduction in cell viability incubated for 24 hrs by MTT assay. The class given is functional, cell-based.
Data set [7] concerns MCF7. Nature of the data set: Anticancer activity against human MCF7 cells incubated for 72 hrs by MTT assay. The class given is functional, cell-based. The following applies: MCF7, 72 h.
Data set [8] can be described thus: Anticancer activity against human A875 cells assessed as inhibition of cell growth incubated for 24 hrs by MTT assay. The following applies: A875, 24 h. The class given is functional, cell-based.
Data set [9] relates to MCF7. Nature of the data set: Antiproliferative activity against human MCF7 cells assessed as inhibition of cell proliferation incubated for 20 hrs by MTT assay. The class given is functional, cell-based. Particulars: MCF7, 20 h.
A further data set has as its system MG-63. Nature of the data set: Antiproliferative activity against human MG-63 cells incubated for 24 hrs by MTT assay. The class given is functional, cell-based. Particulars: MG-63, 24 h.
The test system of another data set is MDA-MB-231. As to the kind of experiment: Antiproliferative activity against human MDA-MB-231 cells assessed as inhibition of cell growth incubated for 24 hrs in presence of foetal bovine serum by MTT assay. The class given is functional, cell-based. Particulars: MDA-MB-231, 24 h.
For another data set, the system named is HCT-8. As to the kind of experiment: Antiproliferative activity against human HCT-8 cells assessed as inhibition of cell proliferation incubated for 24 hrs by CCK-8 assay. The class given is functional, cell-based. Particulars: HCT-8, 24 h.
Data set [10] relates to A549. Nature of the data set: Antiproliferative activity against human A549 cells assessed as inhibition of cell growth incubated for 24 hrs in presence of foetal bovine serum by MTT assay. The class given is functional, cell-based. Particulars: A549, 24 h.
Data set [11] can be described thus: Antitubulin activity against bovine brain tubulin polymerization preincubated with compound followed by GTP addition by turbidimetry-based spectrophotometric method. On the set-up: species or system Bos taurus.
In data set [12] the test system is A549. As to the kind of experiment: Antiproliferative activity against human A549 cells assessed as inhibition of cell proliferation incubated for 20 hrs by MTT assay. Particulars: A549, 20 h. The class given is functional, cell-based.

The values that follow come from ChEMBL document CHEMBL5137008, “Recent advances of antitumor shikonin/alkannin derivatives: A comprehensive overview focusing on structural classification, synthetic approaches, and mechanisms of action” (Eur J Med Chem, 2022).

By IC50 is commonly meant the concentration that inhibits the measured activity by half.

Consider `CC(C)=CC[C@@H](O)C1=CC(=O)c2c(O)ccc(O)c2C1=O` [SHIKONIN], for which the IC50 at 24 h in data set [1] stood at 10.5 µM. For the same molecule, the IC50 with HeLa [2] was determined as 6.5 µM; in the data set on HepG2 it was 0.42 µM; in data set [3] it was 0.58 µM; in the data set with A549 [4], 10.4 µM; in the data set on L02 it was 65.3 µM; in the data set on HeLa [5] it was 5.75 µM. Besides, the IC50 in the data set on HeLa [6] was 2.82 µM; in the data set on MCF7 [7] it was 2.11 µM; in data set [8], 0.46 µM; in the data set on MCF7 [9] it was 1.03 µM; in the data set on MG-63, 7.36 µM; with MDA-MB-231, 2.88 µM. Moreover, the IC50 in the data set on HCT-8 was 9.2 µM; in the data set with A549 [10], 11.7 µM; in data set [11] it was 16.8 µM; in the data set with A549 [12], 2.51 µM.
